Patent US8343475B2, “Small cationic antimicrobial peptides” (priority 2006, dated 2013)
Values after ≈ are worked out from the molar mass of the structure shown. Residues, ends and D or L forms follow the SMILES beside them.

Columns and labels:
Assay type in all cases: cell-based
[1] = system: Pseudomonas aeruginosa PAO1 strain H103; conditions: PAO1
Description: The biological activity of the peptides can be determined by standard methods known to those of skill in the art, such as “minimal inhibitory concentration (MIC)” assay described in the present examples, whereby the lowest concentration at which no change in OD is observed for a given period of time is recorded as MIC.
(§1) Minimal inhibitory concentration (MIC) determination. The MIC of the peptides were measured using a modified broth microdilution method in Mueller Hinton (MH) medium (Wu M, Hancock R E W. 1999. Interaction of the cyclic antimicrobial cationic peptide bactenecin with the outer and cytoplasmic membrane. J Biol Chem 274, 29-35). Briefly, the peptides were dissolved and stored in glass vials. The assay was performed in sterile 96-well polypropylene microtitre plates were used. Serial dilutions of the peptides to be assayed were performed in 0.01% acetic acid (Fisher) containing 0.2% bovine serum albumin (Boehringer Mannheim GmbH) at 10× the desired final concentration. Ten microlitres of the 10× peptides were added to each well of a 96-well polypropylene plate containing 90 μl of MH media per well. Bacteria were added to the plate from an overnight culture at 2-7×10^5 colony forming units/ml and incubated over night at 37° C. The MIC was taken as the concentration at which no growth was observed.
(§2) Strains. For the killing assay a mini-Tn5-lux mutant in Pseudomonas aeruginosa H103 was used. The strain is called H1001 and contains a fliC::luxCDABE transcriptional fusion resulting in constitutive expression of luciferase. The bacterial strains used for the antimicrobial activity assays included Escherichia coli UB1005 (F-, nalA37, metB1), a wild-type Salmonella enterica ssp. typhimurium (S. typhimurium), wild-type Pseudomonas aeruginosa PAO1 strain H103, Enterococcus faecalis ATCC29212, Staphylococcus aureus ATCC25923, and a clinical isolate of Staphylococcus epidermidis obtained from Dr. D. Speert (Department of Medicine, University of British Columbia). Antifungal activity was tested using a lab isolate of Candida albicans obtained from Dr. B. Dill (Department of Microbiology and Immunology, University of British Columbia).

[2] = system: Enterococcus faecalis ATCC29212; conditions: ATCC29212
Description: as §1, §2

Escherichia coli UB1005 = conditions: UB1005
Description: as §1, §2

[3] = system: Staphylococcus aureus ATCC25923; conditions: ATCC25923
Description: as §1, §2

[4] = system: clinical isolate of Staphylococcus epidermidis; conditions: clinical isolate of
Description: as §1, §2

[5] = system: lab isolate of Candida albicans; conditions: lab isolate of
Description: as §1, §2

[6] = system: wild-type Salmonella enterica ssp. typhimurium
Description: as §1, §2

[7] = system: Pseudomonas aeruginosa strain H1001 fliC::luxCDABE; assay: Luminescence (lux) killing assay, peptides cleaved from cellulose support; design: key: − for minimal or no activity; + for weak activity; +/++ for intermediate activity; ++ strong activity; conditions: P. aeruginosa strain H1001, 4 hours incubation, luminescence as indicator
Description: Assay for the cleaved peptides from cellulose support. The peptides were cleaved from the dried membrane in an ammonia atmosphere overnight, resulting in free peptides with an amidated C-terminus. The free peptides contained two β-alanines at the C-terminus, in addition to being amidated due to the linker between the cellulose membrane and the peptide sequence. The peptide spots were punched out and transferred in a 96-well microtiter plate. Serial dilutions were carried out from the membrane spots. Four rows were filled with four controls including 2×Bac2A and 2× an unrelated peptide. The other eight rows were used for serial dilution steps of the peptide variants. An overnight culture of Pseudomonas aeruginosa strain H1001 was diluted 1:500 using either LB media or 100 mM Tris buffer pH 7.3, 20 mM glucose and was added to the wells (100 μl/well) containing the peptide spots. In all other wells 50 μl were added. The microtiter plate was incubated for 30 min at 37° C. to release the peptides from the membrane. Subsequently, a dilution series were performed and the plate was incubated at 37° C. The luminescence produced by the FMN dependent luciferase system were detected in a time dependent manner using a Tecan Spectra Fluor plus.
as §2
Peptide synthesis on cellulose is a very effective and inexpensive way to investigate many different peptide variants for one particular activity. However, one of the problems of this technique is the low peptide amount synthesized on the membrane, about 280 nmol per cm^2. An average peptide spot used for the experiments presented is about 0.3 cm^2. Therefore, an assay had to be developed that was sensitive enough to show activity with this amount of peptides. P. aeruginosa H1001 has a luciferase gene cassette incorporated into the bacterial chromosome in a gene fliC (involved in flagellar biosynthesis) that is constitutively expressed. It will thus produce light if FMN is present. When this strain is killed, e.g. by peptides, the amount of light produced will decrease due to a decrease in FMN levels in the killed cells. This action can thus be monitored by detecting luminescence in a microtiter plate luminescence reader over time. The volume and amount of cells per well were optimized for this assay. After screening, we were able to monitor the killing action with small amounts of the parent peptide Bac2A (2 μg/ml of free peptide).

CC[C@H](C)[C@H](NC(=O)[C@H](CCCNC(=N)N)NC(=O)[C@H](CC(C)C)NC(=O)[C@H](CCCNC(=N)N)NC(=O)[C@@H](N)CCC(N)=O)C(=O)N[C@@H](CCCNC(=N)N)C(=O)N[C@H](C(=O)N[C@@H](C)C(=O)N[C@H](C(=O)N[C@H](C(=O)N[C@@H](CCCNC(=N)N)C(=O)N[C@@H](C)C(N)=O)[C@@H](C)CC)C(C)C)C(C)C [HH1, QRLRIRVAVIRA] (H-QRLRIRVAVIRA-NH2)
MIC P. aerug [1]: 50 µg/mL (≈ 34.5 µM) | MIC E. faecalis [2]: 50 µg/mL (≈ 34.5 µM) | MIC E. coli (Escherichia coli UB1005): 6 µg/mL (≈ 4.14 µM) | MIC S. aureus [3]: 50 µg/mL (≈ 34.5 µM) | MIC S. epi. [4]: 12 µg/mL (≈ 8.28 µM) | MIC C. albicans [5]: 25 µg/mL (≈ 17.2 µM) | MIC S. typhi [6]: 25 µg/mL (≈ 17.2 µM)

CC[C@H](C)[C@H](NC(=O)[C@H](CCCNC(=N)N)NC(=O)[C@H](CC(C)C)NC(=O)[C@H](CCC(N)=O)NC(=O)[C@@H](N)C(C)C)C(=O)N[C@@H](CCCNC(=N)N)C(=O)N[C@H](C(=O)N[C@@H](C)C(=O)N[C@H](C(=O)N[C@H](C(=O)N[C@@H](CCCNC(=N)N)C(=O)N[C@@H](C)C(N)=O)[C@@H](C)CC)C(C)C)C(C)C [HH2, VQLRIRVAVIRA] (H-VQLRIRVAVIRA-NH2)
MIC P. aerug [1]: >50 µg/mL | MIC E. faecalis [2]: 50 µg/mL (≈ 35.9 µM) | MIC E. coli (Escherichia coli UB1005): 6 µg/mL (≈ 4.31 µM) | MIC S. aureus [3]: 50 µg/mL (≈ 35.9 µM) | MIC S. epi. [4]: 12 µg/mL (≈ 8.62 µM) | MIC C. albicans [5]: 25 µg/mL (≈ 17.9 µM) | MIC S. typhi [6]: 12 µg/mL (≈ 8.62 µM)

CC[C@H](C)[C@H](NC(=O)[C@H](CCCNC(=N)N)NC(=O)[C@H](Cc1ccccc1)NC(=O)[C@H](CCCNC(=N)N)NC(=O)[C@@H](N)C(C)C)C(=O)N[C@@H](CCCNC(=N)N)C(=O)N[C@H](C(=O)N[C@@H](C)C(=O)N[C@H](C(=O)N[C@H](C(=O)N[C@@H](CCCNC(=N)N)C(=O)N[C@@H](C)C(N)=O)[C@@H](C)CC)C(C)C)C(C)C [HH3, VRFRIRVAVIRA] (H-VRFRIRVAVIRA-NH2)
MIC P. aerug [1]: 6 µg/mL (≈ 4.12 µM) | MIC E. faecalis [2]: 25 µg/mL (≈ 17.2 µM) | MIC E. coli (Escherichia coli UB1005): 1.6 µg/mL (≈ 1.1 µM) | MIC S. aureus [3]: 12 µg/mL (≈ 8.25 µM) | MIC S. epi. [4]: 1.6 µg/mL (≈ 1.1 µM) | MIC C. albicans [5]: 6 µg/mL (≈ 4.12 µM) | MIC S. typhi [6]: 6 µg/mL (≈ 4.12 µM)

CC[C@H](C)[C@H](NC(=O)[C@H](CCCNC(=N)N)NC(=O)[C@H](Cc1c[nH]c2ccccc12)NC(=O)[C@H](CCCNC(=N)N)NC(=O)[C@@H](N)C(C)C)C(=O)N[C@@H](CCCNC(=N)N)C(=O)N[C@H](C(=O)N[C@@H](C)C(=O)N[C@H](C(=O)N[C@H](C(=O)N[C@@H](CCCNC(=N)N)C(=O)N[C@@H](C)C(N)=O)[C@@H](C)CC)C(C)C)C(C)C [HH4, VRWRIRVAVIRA] (H-VRWRIRVAVIRA-NH2)
MIC P. aerug [1]: 6 µg/mL (≈ 4.02 µM) | MIC E. faecalis [2]: 12 µg/mL (≈ 8.03 µM) | MIC E. coli (Escherichia coli UB1005): 1.6 µg/mL (≈ 1.07 µM) | MIC S. aureus [3]: 12 µg/mL (≈ 8.03 µM) | MIC S. epi. [4]: 1.6 µg/mL (≈ 1.07 µM) | MIC C. albicans [5]: 12 µg/mL (≈ 8.03 µM) | MIC S. typhi [6]: 6 µg/mL (≈ 4.02 µM)

CC[C@H](C)[C@H](NC(=O)[C@H](Cc1c[nH]c2ccccc12)NC(=O)[C@H](CC(C)C)NC(=O)[C@H](CCCNC(=N)N)NC(=O)[C@@H](N)C(C)C)C(=O)N[C@@H](CCCNC(=N)N)C(=O)N[C@H](C(=O)N[C@@H](C)C(=O)N[C@H](C(=O)N[C@H](C(=O)N[C@@H](CCCNC(=N)N)C(=O)N[C@@H](C)C(N)=O)[C@@H](C)CC)C(C)C)C(C)C [HH5, VRLWIRVAVIRA] (H-VRLWIRVAVIRA-NH2)
MIC P. aerug [1]: >50 µg/mL | MIC E. faecalis [2]: 25 µg/mL (≈ 17.2 µM) | MIC E. coli (Escherichia coli UB1005): 6 µg/mL (≈ 4.14 µM) | MIC S. aureus [3]: 50 µg/mL (≈ 34.5 µM) | MIC S. epi. [4]: 3 µg/mL (≈ 2.07 µM) | MIC C. albicans [5]: 50 µg/mL (≈ 34.5 µM) | MIC S. typhi [6]: >50 µg/mL

CC[C@H](C)[C@H](NC(=O)[C@H](CCCNC(=N)N)NC(=O)[C@H](CC(C)C)NC(=O)[C@H](CCCNC(=N)N)NC(=O)[C@@H](N)C(C)C)C(=O)N[C@@H](CCCNC(=N)N)C(=O)N[C@H](C(=O)N[C@@H](Cc1c[nH]c2ccccc12)C(=O)N[C@H](C(=O)N[C@H](C(=O)N[C@@H](CCCNC(=N)N)C(=O)N[C@@H](C)C(N)=O)[C@@H](C)CC)C(C)C)C(C)C [HH6, VRLRIRVWVIRA] (H-VRLRIRVWVIRA-NH2)
MIC P. aerug [1]: 12 µg/mL (≈ 7.81 µM) | MIC E. faecalis [2]: 6 µg/mL (≈ 3.91 µM) | MIC E. coli (Escherichia coli UB1005): 3 µg/mL (≈ 1.95 µM) | MIC S. aureus [3]: 6 µg/mL (≈ 3.91 µM) | MIC S. epi. [4]: 1.6 µg/mL (≈ 1.04 µM) | MIC C. albicans [5]: 25 µg/mL (≈ 16.3 µM) | MIC S. typhi [6]: 12 µg/mL (≈ 7.81 µM)

CC[C@H](C)[C@H](NC(=O)[C@H](CCCNC(=N)N)NC(=O)[C@H](CC(C)C)NC(=O)[C@H](CCCNC(=N)N)NC(=O)[C@@H](N)C(C)C)C(=O)N[C@@H](CCCNC(=N)N)C(=O)N[C@H](C(=O)N[C@@H](C)C(=O)N[C@H](C(=O)N[C@@H](CCCNC(=N)N)C(=O)N[C@@H](CCCNC(=N)N)C(=O)N[C@@H](C)C(N)=O)C(C)C)C(C)C [HH7, VRLRIRVAVRRA] (H-VRLRIRVAVRRA-NH2)
MIC P. aerug [1]: 12 µg/mL (≈ 8.2 µM) | MIC E. faecalis [2]: 25 µg/mL (≈ 17.1 µM) | MIC E. coli (Escherichia coli UB1005): 6 µg/mL (≈ 4.1 µM) | MIC S. aureus [3]: 12 µg/mL (≈ 8.2 µM) | MIC S. epi. [4]: 1.6 µg/mL (≈ 1.09 µM) | MIC C. albicans [5]: 6 µg/mL (≈ 4.1 µM) | MIC S. typhi [6]: 6 µg/mL (≈ 4.1 µM)

CC[C@H](C)[C@H](NC(=O)[C@H](CCCNC(=N)N)NC(=O)[C@H](CC(C)C)NC(=O)[C@H](CCCNC(=N)N)NC(=O)[C@@H](N)C(C)C)C(=O)N[C@@H](CCCNC(=N)N)C(=O)N[C@H](C(=O)N[C@@H](C)C(=O)N[C@H](C(=O)N[C@H](C(=O)N[C@@H](CCCNC(=N)N)C(=O)N[C@@H](CCCCN)C(N)=O)[C@@H](C)CC)C(C)C)C(C)C [HH8, VRLRIRVAVIRK] (H-VRLRIRVAVIRK-NH2)
MIC P. aerug [1]: 6 µg/mL (≈ 4.06 µM) | MIC E. faecalis [2]: 12 µg/mL (≈ 8.12 µM) | MIC E. coli (Escherichia coli UB1005): 3 µg/mL (≈ 2.03 µM) | MIC S. aureus [3]: 6 µg/mL (≈ 4.06 µM) | MIC S. epi. [4]: 1.6 µg/mL (≈ 1.08 µM) | MIC C. albicans [5]: 3 µg/mL (≈ 2.03 µM) | MIC S. typhi [6]: 6 µg/mL (≈ 4.06 µM)

CC[C@H](C)[C@H](NC(=O)[C@H](CCCNC(=N)N)NC(=O)[C@H](CC(C)C)NC(=O)[C@H](CCC(N)=O)NC(=O)[C@@H](N)C(C)C)C(=O)N[C@@H](CCCNC(=N)N)C(=O)N[C@H](C(=O)N[C@@H](CCCNC(=N)N)C(=O)N[C@H](C(=O)N[C@H](C(=O)N[C@@H](CCCNC(=N)N)C(=O)N[C@@H](CCCCN)C(N)=O)[C@@H](C)CC)C(C)C)C(C)C [HH9, VQLRIRVRVIRK] (H-VQLRIRVRVIRK-NH2; N-terminus assumed)
MIC P. aerug [1]: 6 µg/mL (≈ 3.91 µM) | MIC E. faecalis [2]: 12 µg/mL (≈ 7.82 µM) | MIC E. coli (Escherichia coli UB1005): 3 µg/mL (≈ 1.95 µM) | MIC S. aureus [3]: 12 µg/mL (≈ 7.82 µM) | MIC S. epi. [4]: 1.6 µg/mL (≈ 1.04 µM) | MIC C. albicans [5]: 6 µg/mL (≈ 3.91 µM) | MIC S. typhi [6]: 6 µg/mL (≈ 3.91 µM)

RWWPWRR [HH996]
Antimicrobial activity [7]: +
